# “And” between values parts separate entries of the source, which are not always exact repeats. Equal entries are not always repeated. “Also recorded” adds a separate entry of the source. Where two headings read alike, the source gives them in different places.
# Assays:
# [1] = test system: Wnt/β-catenin transcription; conditions: ref Mook et al. (2015); read-out: Mook et al. Wnt/β-catenin TopFlash (IC50); cited from earlier work
# hTMEM16A (abc) = target: T1, hTMEM16A (abc) (Homo sapiens, UniProt Q5XXA6, DEL476-501); experiment: medchem TMEM16A halide-sensitive YFP assay, 22-point dose-response; assay type: cell-based; parameters: expressed in transfected cells; conditions: iodide as permeant anion
# T1 sequence (Q5XXA6 with tags, fused parts or gaps isoform Q5XXA6-5 DEL539-564): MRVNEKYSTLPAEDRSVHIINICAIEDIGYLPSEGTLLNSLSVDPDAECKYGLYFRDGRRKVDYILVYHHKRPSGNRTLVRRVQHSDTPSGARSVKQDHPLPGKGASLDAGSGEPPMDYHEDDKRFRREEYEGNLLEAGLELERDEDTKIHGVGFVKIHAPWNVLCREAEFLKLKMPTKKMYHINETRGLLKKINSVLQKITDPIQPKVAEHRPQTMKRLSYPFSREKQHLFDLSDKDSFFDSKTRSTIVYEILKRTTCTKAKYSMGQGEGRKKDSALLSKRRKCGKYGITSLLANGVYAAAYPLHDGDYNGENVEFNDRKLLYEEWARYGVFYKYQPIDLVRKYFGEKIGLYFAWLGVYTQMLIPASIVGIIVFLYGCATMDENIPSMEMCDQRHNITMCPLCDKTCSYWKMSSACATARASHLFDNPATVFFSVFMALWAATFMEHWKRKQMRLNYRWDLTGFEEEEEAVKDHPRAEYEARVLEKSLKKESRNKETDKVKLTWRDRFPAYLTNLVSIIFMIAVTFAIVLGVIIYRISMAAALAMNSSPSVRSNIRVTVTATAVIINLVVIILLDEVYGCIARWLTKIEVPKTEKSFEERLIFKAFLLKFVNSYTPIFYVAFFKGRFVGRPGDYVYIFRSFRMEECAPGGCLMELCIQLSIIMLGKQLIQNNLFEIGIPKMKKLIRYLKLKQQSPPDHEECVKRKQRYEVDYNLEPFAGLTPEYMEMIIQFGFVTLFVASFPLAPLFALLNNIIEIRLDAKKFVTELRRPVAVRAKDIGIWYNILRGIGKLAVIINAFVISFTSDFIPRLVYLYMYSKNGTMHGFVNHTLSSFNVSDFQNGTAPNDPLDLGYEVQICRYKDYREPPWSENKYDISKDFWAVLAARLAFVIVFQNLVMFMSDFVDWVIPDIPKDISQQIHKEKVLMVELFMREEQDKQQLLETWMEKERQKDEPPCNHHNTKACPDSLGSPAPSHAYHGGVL
# Experimental: The TMEM16A HEK293T eYFP (H149Q, I153L) stable cell line for medchem support was generated by transfecting 10 μg of linearized hTMEM16A(abc) DNA constructs into HEK293T eYFP (H149Q,I153L) stable cells. The transfected cells were cultured under 200 μg/ml of hygromycin B selection for 20 days and the stable pool was single cell seeded in 96 well plate and duplicated plate were made after single cell clones were formed. YFP function assay were performed on duplicated plate and clones producing higher changes in fluorescence from the YFP assay were chosen for further expansion to form a stable cell line.
# Plates were incubated for 24 h at 37°C with 5% CO2. On the assay day, medium was removed and replaced with 20 μl/well of assay buffer (Hank’s Balanced Salt Solution with 10 mM HEPES pH 7.4), 10 μl/well of 40x diluted compounds was added to assay plate and it was incubated at room temperature for 30 min, after which baseline fluorescence was read in the FLIPR instrument for 10 s. Then, 5 μl/well of a 3x trigger solution (24 mM iodide, 3 μM ionomycin in assay buffer) was added and the fluorescence kinetic trace was recorded for 2 min.
# [2] = test system: Wnt/β-catenin transcription; experiment: Wnt/β-catenin transcription TOPFlash reporter assay; assay type: cell-based; conditions: Wnt TopFlash IC50 over TMEM16A eYFP IC50
# mouse tracheal rings [3] = experiment: Wire myograph bronchodilation of carbachol pre-contracted mouse tracheal rings
# Experimental: The trachea from C57 BL/6 mice was dissected and collected in PBS with Mg^2+ and Ca^2+. After further trimming, two 2 mm sections (rings) per trachea were then placed in DMEM media containing PSG/HEPES/AA/NaPyr for 1 h and used immediately or maintained overnight at 37°C in a humidified incubator with 5% CO2. Rings were then mounted into chambers of DMT wire myograph containing L-shaped mounting pins with 2–3 mN of force applied to secure rings on the pins and the rings were allowed to equilibrate for 25–30 min in a physiological saline buffer (PSS, 130 mM NaCl, 4.7 mM KCl, 1.2 mM MgS04, 14.9 mM NaHCO3, 1.2 mM KH2PO4, 0.026 mM EDTA, 1.6 mM CaCl2, 5.5 mM Dextrose). Throughout the experiment, rings were maintained at physiological temperature and gas conditions by heating buffer reservoir and chamber to 37°C and bubbling a 95% O2, 5% CO2 gas mixture into chamber.
# After equilibration, a standard tissue “Wake-Up” procedure was applied by altering tension and then treatment with elevated potassium as follows: 3 mN tension was applied for 5–10 min, then another 2–3 mN tension to total of 5.5 mN and then to 7–8 mN for another 5 min; the tissue pre-tension was then set to 5 mN and allowed to equilibrate for 5–10 min followed by the removal of the PSS buffer and addition of KPSS (60 mM KCl, 74.7 mM NaCl in PSS solution), with force changes monitored until they reached a plateau. The tissue was then washed four times with PSS over 5 min and the KPSS treatment and washes repeated; the tissue was then allowed to sit in PSS for 10 min and the tension was set to 5 mN.
# The tissue was then washed three times and then three times more with PSS for 5 min until tension returned to baseline.
# Only tissue that passed the qualification tests above advanced to studies on test article compounds. […] For standard ascending dose-response studies on TMEM16A antagonists, an EC75 or EC95 concentration of CCh was used to pre-contract tracheal rings.
# mouse tracheal rings [4] = experiment: Bronchodilation of cytokine-treated mouse tracheal rings; conditions: overnight IL-1β, TNFα, IL-13 100 ng/ml, EC75 carbachol
# Experimental: Airway rings were treated overnight in 2 ml DMEM + PSG/HEPES/AA/NaPyr buffer alone or with the same solution supplemented with 100 ng/ml of mTNFα, mIL-13 and mIL-1β. Unlike like the typical Wake-Up protocol and ring qualifying tests, mouse tracheal rings were not exposed to KPSS and rings were not observed to relax with a β-agonist following discovery of CCh dose-responses. After several washes with PSS, EC75 concentrations of CCh were used to pre-contract rings for >30 min alone or in the presence of cytokines.
# mouse tracheal rings [5] = experiment: β-agonist use-dependent desensitization of mouse tracheal rings; conditions: round 2
# From the text: Standard procedures were used to prepare and mount tissues.
# mouse tracheal rings [6] = experiment: Bronchodilation of mouse tracheal rings at differing levels of carbachol pre-contraction; conditions: for relaxation of airway rings: normalized to theophylline
# Experimental: Standard procedures as listed above were used to prepare, mount and Wake-Up tracheal rings and the concentrations of carbachol providing EC25, EC50, EC75, or EC95 levels of contraction for each ring was determined as described above.
# human bronchial rings = experiment: Wire myograph bronchodilation of histamine pre-contracted human bronchial rings (Biopta)
# From the text: Details of bronchodilator studies shown in Figure 5H, 6 and Supplementary Figure 40 are provided below as part of the end assay report on Study CUR011 by Lee Christie (Biopta). Donors with any of the following conditions were excluded from the study: asthma, COPD, emphysema, lung cancer, cystic fibrosis, pulmonary fibrosis, pulmonary hypertension, pneumonia. Donors were also excluded if they had smoked in the past 12 months. Non-transplantable lung tissue was acquired from organ donors post mortem. Any macroscopically diseased/necrotic tissue was rejected. […] Human airway rings were set up under isometric conditions on a wire myograph in order to examine the influence of the test articles on bronchodilation. In order to assess tissue viability, the airways were challenged with carbachol (10 μM) and then isoprenaline (10 μM) to assess their constriction and relaxation responses, respectively. […] Viable airways were pre-constricted with histamine (10 μM), then exposed to one of the following cumulative concentration response curves (CCRCs): positive control, vehicle (water, volume matched to positive control), test article, vehicle (DMSO concentration matched to test articles). At the end of each CCRC, theophylline (2.2 mM) was added to induce maximal relaxation of the tissue. […] Airways were re-tensioned to 1.0 – 1.5 g if the tension had dropped below 1.0 g during the first 30 min of equilibration. (b) Airways were exposed to carbachol (bath concentration 10 μM) in order to measure their contractile responses and then isoprenaline (10 μM) in order to assess their relaxation. Airways were washed out and allowed to return to baseline. (c) Airways were pre-constricted with histamine (10 μM) before conducting a CCRC to the test article, the positive control (isoprenaline), test article vehicle or positive control vehicle.
# mouse airway rings = experiment: Duration of bronchodilation after washout and carbachol re-challenge, mouse airway rings; conditions: EC75 carbachol, preliminary
# Experimental: Mouse airway rings were exposed to a typical Wake-Up procedure including the use of KPSS and discovery of EC75 CCh dose responses. However, no isoproterenol was used to observe tissue relaxation as part of the qualification procedure. With pre-contraction with EC75 CCh for >30 min, rings were subjected to a compound dose-response, followed by a complete washout of compound, and re-contracted with EC75 CCh. Traces were recorded for several hours thereafter and normalized to theophylline as control of 100% relaxation.
# [7] = supplement, maximum concentration 55.6, read-out: TMEM16A eYFP Assay IC50
IC50 (hTMEM16A (abc); [7]),"IC50 Ratio, Wnt/TMEM16A [2]",Structure (SMILES),IC50 [1],other results
0.13 µM,6.85,O=C(Nc1cccc(C(F)(F)F)c1)c1cc(Cl)ccc1O [Cpd 9],0.89 µM,–
0.09 µM,18.33,O=C(Nc1cccc(Cl)c1)c1cc(Cl)ccc1O [Cpd 10],1.65 µM,–
0.33 µM,9.24,O=C(Nc1ccccc1Cl)c1cc(Cl)ccc1O [Cpd 11],3.05 µM,–
0.09 µM,4.67,O=C(Nc1ccc(Cl)cc1Cl)c1cc(Cl)ccc1O [Cpd 12],0.42 µM,"IC50 (hTMEM16A (abc); average, 22-point dose-response, read-out: TMEM16A eYFP Assay (IC50)): 0.088 µM"
0.2 µM,3.50,O=C(Nc1cc(Cl)cc(Cl)c1)c1cc(Cl)ccc1O [Cpd 13],0.7 µM,–
0.25 µM,15.36,O=C(Nc1ccc(F)cc1)c1cc(Cl)ccc1O [Cpd 16],3.84 µM,–
0.31 µM,12.97,O=C(Nc1ccc(F)cc1F)c1cc(Cl)ccc1O [Cpd 17],4.02 µM,–
–,–,"CC(C)NCC(O)c1ccc(O)c(O)c1 (stereo not drawn) [Isoproterenol, isoproterenol]",–,"time to relax mouse tracheal rings (mouse tracheal rings [3]; EC75 carbachol, 10 nM dose (Supplementary Figure 39)): 2 – 4 min and 2 − 4 min; EC50 (mouse tracheal rings [3]; EC75 carbachol, Exp 1-3, read-out: EC50 relaxation of mouse tracheal rings, individual experiments): 0.0059 µM and 0.0077 µM; EC50 (mouse tracheal rings [3]; Mus musculus, EC75 carbachol, Exp 1-3, read-out: EC50 relaxation of mouse tracheal rings, individual experiments): 0.0081 µM; EC50 (mouse tracheal rings [3]; Mus musculus, pre-contracted with EC75 carbachol, average, read-out: EC50 relaxation of mouse tracheal rings): 0.0071 µM; bronchodilation of cytokine-treated airways (mouse tracheal rings [4]): dramatically reduced; % relaxation after second treatment and highest dose (mouse tracheal rings [5]; EC50 carbachol): 78.6%; % relaxation after second treatment and highest dose (mouse tracheal rings [5]; EC75 carbachol): 42.7%; relaxation of airway rings (mouse tracheal rings [6]; EC25 level of carbachol): 100%; bronchodilation of a single maximally contracted ring (mouse tracheal rings [6]; EC95 carbachol, highest dose (1 μM)): 38% and 37.7%; relaxation of airway rings (mouse tracheal rings [6]; EC95 level of carbachol): 42%; EC50 (human bronchial rings; Homo sapiens, 10 μM histamine, read-out: EC50 bronchodilating histamine precontracted human airways): 0.03 µM; time to steady-state relaxation of human bronchial rings (human bronchial rings; histamine pre-contracted, 10 or 100 nM): less than 7 min; time to open airways (human bronchial rings; summary): < 7 min; duration of bronchodilation after washout and re-challenge (mouse airway rings): short-acting; also recorded: quickly lost"

Structure (SMILES),IC50 (hTMEM16A (abc); [7]),"IC50 Ratio, Wnt/TMEM16A [2]",IC50 [1],other results
O=C(Nc1ccc(Cl)c(Cl)c1)c1cc(Cl)ccc1O [Cpd 14],–,8.11,0.73 µM,"IC50 (hTMEM16A (abc); TMEM16A eYFP Assay IC50, supplement, maximum concentration 55.6): 0.09 µM"

# — publication PMC6382696, “Drug Repurposing: The Anthelmintics Niclosamide and Nitazoxanide Are Potent TMEM16A Antagonists That Fully Bronchodilate Airways” (Frontiers in Pharmacology, 2019)
